# Results from patent US4680311A, “Method for the treatment of systemic mycosis” (Taisho Pharmaceutical Co., Ltd., priority 1985, dated 1987).
# Like-named read-outs stand apart in the source and are kept apart here.
# Experiments:
# mice = experiment: Acute toxicity in mice; format: in vivo
# Text: (§1) This finding leads the inventors to possible usefulness of this substance for the therapy of human cases of candidiasis and other systemic mycoses. This substance is an extremely specific antimycotic agent in that it quite differs in chemical structure from any existing antimycotic agents.
# Acute toxicity in mice = format: in vivo; conditions: mouse, in vivo, mice
# Text: as §1
# Candida albicans [1] = experiment: protective and therapeutic efficacy in mice experimentally infected with Candida albicans; format: in vivo
# Method: (§2) Female SPF mice Crj:CD-1 (ICR) strain, 4 weeks of age, weighing 18 g±1 g, were used as test animals. One loopful organisms of Candida albicans TIMM 0239 grown on Sabouraud's glucose agar slants were inoculated into Sabouraud's glucose broth containing 0.5% yeast extract. Then cultures were grown aerobically at 37° C. for 18 hours. The organisms were harvested from the cultures, washed twice with sterilized physiological saline, and finally suspended in saline. A total number of organisms was counted in a Burker-Turk hemocytometer. Thus prepared cell suspension was adjusted to contain 10^6 cells/ml, 0.2 ml of which was then injected into the tail vein in each mouse. Infected mice were allocated randomly to different groups. Each group consisted of eight mice.
# (S)-2-amino-5-hydroxy-4-oxopentanoicacid was dissolved in sterilized physiological saline. The mice in the treated groups received the solution of this compound in a dose of 50 mg per kg mouse body weight once daily via an intravenous, subcutaneous, intraperitoneal or oral route for 5 consecutive days, starting on the day of infection. The first treatment was given immediately after a challenge of Candida albicans. The untreated control animals were intravenously given the same volume of saline in place of the test compound solution. The animals were observed daily for 10 days postinfection. […]
# [2] = test system: pathogenic human tubercle bacilli; conditions: A. Miyake, Chem. Pharm. Bull., 8, 1071 (1960); cited from earlier work
# [3] = test system: Candida albicans TIMM 0239; experiment: Test Example 1: survival of mice with systemic Candida albicans infection; format: in vivo, Candida albicans TIMM 0239 in female SPF Crj:CD-1 (ICR) mice; conditions: for Survival rate: 50 mg/kg once daily, 5 days, observed 10 days postinfection, control 0/8
# Method: as §2
# (§3) (S)-2-amino-5-hydroxy-4-oxopentanoicacid was dissolved in sterilized physiological saline. The mice in the treated groups received the solution of this compound in a dose of 50 mg per kg mouse body weight once daily via an intravenous, subcutaneous, intraperitoneal or oral route for 5 consecutive days, starting on the day of infection. The first treatment was given immediately after a challenge of Candida albicans. The untreated control animals were intravenously given the same volume of saline in place of the test compound solution. The animals were observed daily for 10 days postinfection.
# Candida albicans [4] = format: in vivo, Candida albicans TIMM 0239 in female SPF Crj:CD-1 (ICR) mice; conditions: for Survival rate / Average viable counts recovered (per mouse): twice daily, 14 days; for Survival rate: control 0/5; for Average viable counts recovered (per mouse): kidneys, control 4.87 × 10^7
# Method: as §2, §3
# The same experimental conditions as for Test Example 1 were employed, except that all groups of five animals were infected with 1.0×10^6 organisms and treated with either 25, 50 or 100 mg/kg of the test compound twice daily for 14 consecutive days. Duration of observation period was two weeks after infection.
# The criteria to evaluate efficacy of the test compound include survival rate and viable counts of Candida albicans recovered from the kidneys of infected animals. Both kidneys were excised from all the animals at the end of the experimental period, homogenized and cultured on Sabouraud's glucose agar plates for assay of viable counts.
# fungi = conditions: A. Miyake, Chem. Pharm. Bull., 8, 1071 (1960); cited from earlier work
compound,measurement,setting,value
N[C@@H](CC(=O)CO)C(=O)O [(S)-2-amino-5-hydroxy-4-oxopentanoicacid],toxicity compared with existing antimycotic drugs,"mice; acute toxicity, mice",lower than that of any existing antimycotic drugs
same,tolerability in experimental animals,"mice; mouse, in vivo",very high tolerability
same,LD50,Acute toxicity in mice; ip,≥ 5000 mg/kg
same,LD50,Acute toxicity in mice; po,≥ 6000 mg/kg
same,LD50,Acute toxicity in mice; sc,≥ 5000 mg/kg
same,protective and therapeutic efficacy,Candida albicans [1],significant protective and therapeutic efficacy
same,activity against pathogenic human tubercle bacilli,[2],highly active
same,Survival rate,[3]; intraperitoneal,0/8
same,Survival rate,[3]; intravenous,4/8
same,Survival rate,[3]; oral,4/8
same,Survival rate,[3]; subcutaneous,0/8
same,therapeutic efficacy,"[3]; especially by intravenous or oral route, murine systemic candidiasis",significant therapeutic efficacy
same,Survival rate,Candida albicans [4]; 25 mg/kg oral,1/5
same,Survival rate,Candida albicans [4]; 50 mg/kg oral,2/5
same,Survival rate,Candida albicans [4]; 100 mg/kg oral,5/5
same,Average viable counts recovered (per mouse),Candida albicans [4]; 25 mg/kg oral,1.45 × 10^7 per mouse
same,Average viable counts recovered (per mouse),Candida albicans [4]; 50 mg/kg oral,1.41 × 10^6 per mouse
same,Average viable counts recovered (per mouse),Candida albicans [4]; 100 mg/kg oral,2.41 × 10^5 per mouse
same,correlation between therapeutic efficacy and oral dose,"Candida albicans [4]; oral, 25, 50 or 100 mg/kg",close correlation
same,in vitro antimycotic activity,fungi,does hardly exert an in vitro antimycotic activity
